Here are results for two compounds from patent US8030360B2, “Anti-wrinkle agent” (Kemphys Ltd., priority 2004, dated 2011).

One data set deals with horny layer. Description: Horny layer turnover test (dansylchloride fluorescence). The data set is classed as in vivo, guinea pig. The conditions noted are these: 50 ppm, 10 μl/1 cm diameter, once a day (FIG. 3). On the procedure: Actions on turnover of horny layer were evaluated by using guinea pigs. Hartley albino male guinea pigs of approximately 750 g in weight, whose hair was removed using depilatory wax three days prior to the experiment, were applied occlusively with 5% Vaseline ointment of dansylchloride for 24 hours using a patch test Finn Chamber, and then the skin of the guinea pigs were wiped to remove the ointment. A portable fluorometer was used for irradiation with ultraviolet rays having maximum at around 338 nm, and the fluorescent intensity of the dansylchloride was measured. Simultaneously, fluorescent intensity of an area where dansylchloride was not applied (blank value) was measured in the same manner. After the measurement of the fluorescent intensities, 10 μl/1 cm diameter of RA and Am80 at 50 ppm concentration were applied once a day. During the measurement, skin irritancy was also determined according to the criteria indicated in Example 1. […] Cumulative skin irritancy was simultaneously evaluated according to the criteria in Example 1, and the results were obtained as shown in FIG. 4.

The test system of data set [1] is guinea pig skin. Description: Cumulative skin irritancy test of a retinoid on guinea pig skin. The data set is classed as in vivo. As for the experimental part:
(§1) Histological tests were conducted to study the irritancy of a retinoid on guinea pig skin and correlation between an irritancy threshold and a retinoid action threshold. Each of male guinea pigs of approximately in a weight of 600 g was applied once every day with 1, 5, 10, 50, or 100 ppm of retinoic acid (RA) or Am80 (4-[(5,6,7,8-tetrahydro-5,5,8,8-tetramethyl-2-naphthalenyl)carbamoyl]benzoic acid) as an ethanol solution on the dorsal skin (5 days a week). As a control, only the solvent (ethanol) was applied. The skin responses were evaluated according to the following 5-step criteria, and average values were calculated for each concentration of the drugs by using results obtained from three of the guinea pigs. • 0: No skin response was observed. • 1: Slight erythema was observed. • 2: Obvious erythema was observed. • 3: Strong erythema or slight edema/crust was observed. • 4: Obvious edema/crust, or more severe changes was observed.
(§2) Further, concentration dependencies of cumulative skin irritancy of RA and Am80 for the same application period were compared.

A further data set deals with skin grooves. The data set is described as follows: Planarization action on skin surface formation (skin groove), silicon resin replicas and image analysis. The data set is classed as in vivo, hairless mice. The conditions noted are these: 0.01% in ethanol. As for the experimental part: Changes which appear on skin grooves after applications of RA and Am80 (each at a concentration of 0.01% in ethanol) were studied by using hairless mice (Skh-h4l, 16 weeks old, female, 5 mice per group). The applications were conducted once a day, 5 days a week, and for 30 days. As a control, only ethanol was applied. On the next day of the day of last application, replicas of skin surfaces were created by using a silicon resin, and various parameters that represent features of the shape of the skin surface were determined by using an apparatus for image analysis. […] Further, the decrease in KSD correlated to epidermal thickening.

A further data set relates to fibroblast cells. The data set is described as follows: Acceleration of EGF-dependent growth of fibroblast cells. The data set is classed as cell-based. Particulars: low serum level. On the procedure: The growth of fibroblast cells, being suspended under a low serum level, is dependent on growth factors, and the growth will start by the addition of EGF. The acceleration effects of RA and Am80 on the EGF-dependent growth were evaluated. RA gave the maximum effect (40% promotion) at 10^−6 M, and Am80 gave the maximum effect (30% promotion) at 10^−8 M. The acceleration effect of Am80 (10%) was also observed at 10^−10 Ml.

The subject of data set [2] is Normal human keratinocyte. Description: Human keratinocyte growth (amount of DNA as index). The data set is classed as cell-based. The conditions noted are these: amount of DNA as index of HK growth. As for the experimental part: (§3) Normal human keratinocyte obtained from human chest skin (HK, Kurabo) was cultured, and the cells were added with RA or Am80 (0.01% in dimethyl sulfoxide) on the second day. The cells on the second to 13th day after the addition of the agents were used as samples. By using the amount of DNA as an index of HK growth, and by using compositional ratio (K1/K16) of differentiated keratin (k1; 68 kD) and proliferating keratin (K16; 48 kD) in one-dimension SDS-PAGE as an index of differentiation, differentiation suppression rate was determined as a value wherein the ratio of the indexes of each sample and control applied only with a solvent was subtracted from 1. […] IC50 was 10^−6 to 10^−7 M for RA, and 10^−9 M for Am80.

The conditions of data set [3]: reported in WO96/30009; cited from earlier work.
Data set [4] concerns Normal human keratinocyte. The data set is described as follows: Human keratinocyte differentiation (K1/K16 keratin ratio, SDS-PAGE). The data set is classed as cell-based. On the procedure:
as §3

Data set [5] concerns guinea pig skin. The data set is described as follows: Histological findings of guinea pig skin at the end of the application period. The data set is classed as in vivo. On the procedure:
as §1, §2

In the case of `CC1(C)CCC(C)(C)c2cc(NC(=O)c3ccc(C(=O)O)cc3)ccc21` [Am80, 4-[(5,6,7,8-tetrahydro-5,5,8,8-tetramethyl-2-naphthalenyl)carbamoyl]benzoic acid], the “action on horny cell layer turnover” value in the data set on horny layer is recorded as “almost no effect”. In addition, the skin responses result in the data set on guinea pig skin [1] (10 ppm or less, during this period (FIG. 2)) is given as “no skin responses”. The “skin response compared with retinoic acid” value in the data set with guinea pig skin [1] (RA and Am80 at the same concentration (FIG. 1)) is “much weaker skin response than retinoic acid and induces extremely slow skin response”. Further, the epidermal thickening result in the data set with skin grooves (for 30 days (FIG. 6)) is on record as “obvious changes”. Also, in the data set with skin grooves (once a day, 5 days a week, for 30 days), the “planarization changes of skin surface on replicas” value is reported as “The same action was observed”. Also, the Emax at 0.01 µM with fibroblast cells (Fibroblast, at 10^−8 M, read-out: maximum effect on EGF-dependent growth (promotion)) was determined as 30%. Besides, the “acceleration effect on EGF-dependent growth” value in the data set on fibroblast cells (at 10^−10 Ml) came to 10%. For the same compound, the IC50 in data set [2] (Homo sapiens, Keratinocyte, read-out: IC50 of cell growth suppression) was 1 nM. Further, the “effect on dermatopathy caused by rays of sunlight” value in data set [3] is “ineffective”. Also, the “differentiation suppression rates as compared to that by RA” value in data set [4] (Am80 versus RA) lay in the range of 1.3 to 1.7 times. Also, in data set [4] (K1/K16 ratio as index of differentiation), the “cell differentiation suppression action compared with RA” value is “stronger than that of RA”. For the same compound, the “concentration at which cell differentiation suppression action is also observed” value in data set [4] (as low as) is 10^−8 to 10^−10 M. The “skin thickening and inflammatory changes compared with RA” value in the data set on guinea pig skin [5] is “more slight skin thickening and inflammatory changes even when applied at 10 times higher concentration”.
`CC1=C(/C=C/C(C)=C/C=C/C(C)=C/C(=O)O)C(C)(C)CCC1` [RA, retinoic acid, reference compound]: the “irritancy threshold (cumulative skin irritancy)” value in the data set with guinea pig skin [1] (same application period, FIG. 2 (9th day of application)) was “less than 5 ppm”. Besides, the Emax at 1 µM with fibroblast cells (Fibroblast, at 10^−6 M, read-out: maximum effect on EGF-dependent growth (promotion)) came to 40%. In addition, the “IC50 of cell growth suppression” value in data set [2] is listed as 10^−6 to 10^−7 M.

By IC50 is commonly meant the point on the concentration scale where inhibition reaches its midpoint.
